pEC50: −log10 of the molar value.
Molecular target: Melanocortin receptor 4 (Mus musculus, UniProt P56450)
Assay: ChEBML_104255
From the text: Agonistic activity evaluated at melanocortin 4 receptor (MC4R) of mouse HEK293 cells

Sequence of Melanocortin receptor 4 (P56450 whole entry): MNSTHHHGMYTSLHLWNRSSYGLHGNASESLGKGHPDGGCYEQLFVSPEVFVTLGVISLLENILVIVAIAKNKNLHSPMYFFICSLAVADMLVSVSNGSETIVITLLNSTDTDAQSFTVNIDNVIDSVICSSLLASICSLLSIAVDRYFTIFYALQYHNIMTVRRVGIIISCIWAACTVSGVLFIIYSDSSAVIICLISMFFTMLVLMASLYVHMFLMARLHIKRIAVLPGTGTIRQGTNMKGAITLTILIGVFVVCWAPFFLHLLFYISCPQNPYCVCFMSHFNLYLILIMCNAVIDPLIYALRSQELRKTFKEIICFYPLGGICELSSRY

pEC50: 7.77
Structure (SMILES): CC(=O)N[C@@H](Cc1cnc[nH]1)C(=O)N[C@H](Cc1ccccc1)C(=O)N[C@@H](CCCN=C(N)N)C(=O)N[C@@H](Cc1c[nH]c2ccccc12)C(N)=O [(S)-2-{(R)-2-[(S)-2-Acetylamino-3-(1H-imidazol-4-yl)-propionylamino]-3-phenyl-propionylamino}-5-guanidino-pentanoic acid [(S)-1-carbamoyl-2-(1H-indol-3-yl)-ethyl]-amide]
